US12662513B2, “Peptidic modulators of quorum sensing in Staphylococcus epidermidis” (priority 2016, dated 2026)
Entries after “also recorded” stand apart in the source; their conditions may differ. Where two headings read alike, the source gives them in different places. Bridge positions count the residues as written; N and C are the ends. Square brackets hold non-standard residues; d marks the D form. Ends that are not written are not given here. Peptide text beside a SMILES is read from it.

Columns and labels:
[1] = target: T1, AgrC-I receptor (Staphylococcus epidermidis, UniProt Q5HMY3); assay: cell-based; assay type: cell-based, S. epidermidis; settings: for EC50 in AgrC-I: activation dose response in the presence of 50 nM S. epidermidis AIP-II; for IC50 in AgrC-I: antagonism dose response, peptide alone, Group-I GFP reporter strain, 24 h; for Mode/strength of activity toward AgrC-I (Group I), in words: dose response
Protocol: The initial set of 14 analogs (listed in Table 1) was synthesized using solid-phase peptide chemistry and purified to homogeneity using previously established HPLC methods (59). Each analog was tested for its ability to modulate the activity of the AgrC-I receptor using a wild-type S. epidermidis Group-I fluorescence reporter strain. This strain contained a reporter plasmid encoding a gfp gene fused to the P3 promoter found upstream of RNAIII (36).
(§1) Biological reagents, strains, and general methods. All standard reagents were purchased from commercial sources and used according to enclosed instructions. The S. epidermidis fluorescence reporter strains AH3408 (Group-I), AH3567 (Group-II), and AH3409 (Group-III) were cultured in Tryptic Soy Broth (TSB, from Sigma) augmented with 10 μg/mL of erythromycin (36). The S. epidermidis wild-type strain RP62A (Group-I) was cultured in TSB (from Sigma or EMD Millipore). The S. aureus fluorescence reporter strains AH1677 (Group-I), AH430 (Group-II), AH1747 (Group-III), and AH1872 (Group-IV) were cultured in Brain Heart Infusion (BHI, from Teknova) augmented with 10 μg/mL of chloramphenicol (65). All cultures were grown at 37° C. with shaking (200 rpm) unless noted otherwise. Absorbance and fluorescence measurements were obtained using a Biotek Synergy 2 microplate reader operating Gen5 data analysis software. IC50 values and EC50 values were determined from sigmoidal curve fits using GraphPad Prism software (v. 6.0).
(§2) Fluorescence reporter assay protocol. […] Each peptide solution was tested in triplicate. […] Plates were then incubated at 37° C. for 24 h. Fluorescence (EX 500 nm/EM 540 nm) and OD600 of each well was measured using a plate reader, and the fluorescence values were normalized to the DMSO control.
(§3) The remaining steps of the fluorescence assay were the same as above.

[2] = test system: S. epidermidis Group-I RP62A biofilm; settings: read-out: IC50 of biofilm growth inhibition, 24 h static, CV staining
Protocol: as §1
Crystal violet biofilm assay protocol. […] Each solution was tested in triplicate.

[3] = test system: AgrC-III; settings: for Activity toward Group-III at lower concentration, in words: single concentration 100 nM (or 1 μM)
Excerpt: (§4) However, the biological significance of this agr interference remains unclear, although it has been hypothesized to potentially play a role in competition between different groups in a mixed bacteria milieu (18). […] To this end, the AIP analogs discussed above were screened in GFP reporter strains of Groups-II and -III S. epidermidis to complement the Group-I S. epidermidis data in Tables 1 and 2 (see Methods; FIGS. 7A and 7B).
as §1, §2, §3

[4] = test system: AgrC-II; settings: for potency estimated from few doses: single replicate dose response, Table 3; for Activity toward Group-II at lower concentration, in words: single concentration 100 nM (or 1 μM); for Mode/strength of activity toward AgrC-II (Group II), in words: dose response
Excerpt: as §4, §1, §2, §3

[5] = target: T1, AgrC-I receptor; assay type: cell-based, S. epidermidis; settings: single replicate dose response, Table 3
[6] = read-out: AgrC-II: IC50 (estimated)
[7] = read-out: AgrC-I: EC50 (estimated)
[8] = dose response antagonism assay, FIGS. 3A/3B
[9] = read-out: AgrC-II: EC50 (estimated)
[10] = read-out: AgrC-I: IC50 (estimated)

T1 sequence (Q5HMY3 entry or part of it): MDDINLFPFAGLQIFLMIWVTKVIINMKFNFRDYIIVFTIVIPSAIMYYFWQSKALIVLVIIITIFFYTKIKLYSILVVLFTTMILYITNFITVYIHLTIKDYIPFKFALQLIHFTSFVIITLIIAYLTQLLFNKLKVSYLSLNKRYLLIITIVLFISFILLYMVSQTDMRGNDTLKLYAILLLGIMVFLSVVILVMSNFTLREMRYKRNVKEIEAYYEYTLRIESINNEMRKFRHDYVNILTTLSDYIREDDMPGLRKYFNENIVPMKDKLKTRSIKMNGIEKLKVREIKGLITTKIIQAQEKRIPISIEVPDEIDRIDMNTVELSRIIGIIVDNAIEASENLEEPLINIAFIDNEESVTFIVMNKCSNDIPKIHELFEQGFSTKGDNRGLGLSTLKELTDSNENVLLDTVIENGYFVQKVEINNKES

## D-S-V-(C-DA-S-Y-F) (DSVC[dA]SYF; bridge 4-C; also: thiolactone between Cys4 side chain and C-terminus) [AIP-I D-A5]
[1]
  EC50 in AgrC-I: Inactive^c
  IC50 in AgrC-I: Inactive^c

## CC(C)[C@H](NC(=O)[C@H](CO)NC(=O)[C@@H](N)CC(=O)O)C(=O)N[C@H]1CSC(=O)[C@H](Cc2ccccc2)NC(=O)[C@H](Cc2ccc(O)cc2)NC(=O)[C@H](CO)NC(=O)[C@H](C)NC1=O [AIP-I, D-S-V-(C-A-S-Y-F), reference compound] (H-DSVCASYF; thioester 4-C)
[2]
  IC50: 99 nM

## CC(C)C[C@@H]1NC(=O)[C@H](Cc2ccc(O)cc2)NC(=O)[C@H](CC(N)=O)NC(=O)[C@H](CO)NC(=O)[C@@H](NC(=O)[C@@H]2CCCN2C(=O)[C@H](CC(N)=O)NC(=O)[C@H](Cc2ccc(O)cc2)NC(=O)[C@H](CCCCN)NC(=O)[C@H](CO)NC(=O)[C@H](C)NC(=O)[C@@H](N)CC(N)=O)CSC1=O [AIP-II, N-A-S-K-Y-N-P-(C-S-N-Y-L), reference compound] (H-NASKYNPCSNYL; thioester 8-C)
[1]
  Mode/strength of activity toward AgrC-I (Group I), in words: inhibit

## I-N-(C-D-F-L-L) [S. aureus AIP-III, reference compound]
[1]
  EC50 in AgrC-I: Inactive^c
  IC50 in AgrC-I: Inactive^c

## CC(=O)N[C@H]1CSC(=O)[C@H](CC(C)C)NC(=O)[C@H](Cc2ccc(O)cc2)NC(=O)[C@H](CC(N)=O)NC(=O)[C@H](CO)NC1=O [tAIP-II, Ac-(C-S-N-Y-L)] (Ac-CSNYL; thioester 1-C)
[1]
  Mode/strength of activity toward AgrC-I (Group I), in words: dramatic reduction in inhibitory activity
[3]; single concentration 10 μM
  Activity against Group-III, in words: inactive

## D-S-V-(C-A-S-DY-F) (DSVCAS[dY]F; bridge 4-C; also: thiolactone between Cys4 side chain and C-terminus) [AIP-I D-Y7]
[1]
  EC50 in AgrC-I: Inactive^c
  IC50 in AgrC-I: Inactive^c
  Mode/strength of activity toward AgrC-I (Group I), in words: complete loss of activity

## CC(C)[C@H](NC(=O)[C@H](CO)NC(=O)[C@H](C)N)C(=O)N[C@H]1CSC(=O)[C@H](Cc2ccccc2)NC(=O)[C@H](Cc2ccc(O)cc2)NC(=O)[C@H](C)NC(=O)[C@H](C)NC1=O [AIP-I D1AS6A, A-S-V-(C-A-A-Y-F)] (H-ASVCAAYF; thioester 4-C)
[2]
  IC50: 18 nM

## KYNVCSSYL [AIP-II 9aa P4V N7S, K-Y-N-V-C-S-S-Y-L]
[1]
  Mode/strength of activity toward AgrC-I (Group I), in words: switched; also recorded: antagonist
[4]; [6]
  potency estimated from few doses: 6.5 nM
[5]; [7]
  potency estimated from few doses: > 1800 nM

## C[C@H](N)C(=O)N[C@@H](CO)C(=O)N[C@@H](C)C(=O)N[C@H]1CSC(=O)[C@H](Cc2ccccc2)NC(=O)[C@H](Cc2ccc(O)cc2)NC(=O)[C@H](C)NC(=O)[C@H](C)NC1=O [AIP-I D1AS6AV3A, A-S-A-(C-A-A-Y-F)] (H-ASACAAYF; thioester 4-C)
[3]; [8]
  IC50 against AgrC-III, in words: subnanomolar to low nanomolar range
[3]
  Activity toward Group-III at lower concentration, in words: strongly inhibited
[4]; [8]
  IC50 against AgrC-II, in words: subnanomolar to low nanomolar range
[4]
  Activity toward Group-II at lower concentration, in words: strongly inhibited

## KYNVCSAYL [AIP-II 9aa P4V N7A, K-Y-N-V-C-S-A-Y-L]
[1]
  Mode/strength of activity toward AgrC-I (Group I), in words: activating; also recorded: agonist
[4]; [9]
  potency estimated from few doses: > 600 nM
[5]; [7]
  potency estimated from few doses: > 1200 nM

## D-S-V-(C-A-S-A-F) (DSVCASAF; bridge 4-C; also: thiolactone between Cys4 side chain and C-terminus) [AIP-I Y7A]
[1]
  EC50 in AgrC-I: Inactive^c
  IC50 in AgrC-I: Inactive^c
[1]; single concentration 10 μM
  Activity against Group-I, in words: inactive

## Y-S-T-(C-D-F-I-M) (YSTCDFIM; bridge 4-C) [S. aureus AIP-I, reference compound]
[1]
  EC50 in AgrC-I: Inactive^c
  IC50 in AgrC-I: Inactive^c

## CC(C)C[C@@H]1NC(=O)[C@H](Cc2ccc(O)cc2)NC(=O)[C@H](CO)NC(=O)[C@H](C)NC(=O)[C@@H](NC(=O)[C@@H]2CCCN2C(=O)[C@H](CC(N)=O)NC(=O)[C@H](Cc2ccc(O)cc2)NC(=O)[C@H](CCCCN)NC(=O)[C@H](C)NC(=O)[C@H](C)NC(=O)[C@@H](N)CC(N)=O)CSC1=O [AIP-III, N-A-A-K-Y-N-P-(C-A-S-Y-L), reference compound] (H-NAAKYNPCASYL; thioester 8-C)
[1]
  Mode/strength of activity toward AgrC-I (Group I), in words: inhibit

## KYVPCSNYL [AIP-II 9aa N3V, K-Y-V-P-C-S-N-Y-L]
[1]
  Mode/strength of activity toward AgrC-I (Group I), in words: antagonist
[4]
  Mode/strength of activity toward AgrC-II (Group II), in words: antagonist
[4]; [6]
  potency estimated from few doses: 108 nM
[5]; [10]
  potency estimated from few doses: 4.1 nM

## CC(C)C[C@@H]1NC(=O)[C@H](CO)NC(=O)[C@H](CO)NC(=O)[C@@H](NC(=O)[C@H](C)NC(=O)[C@H](CC(N)=O)NC(=O)[C@@H](NC(=O)CN)C(C)C)CSC(=O)[C@H](Cc2ccccc2)NC1=O [S. aureus AIP-II, G-V-N-A-(C-S-S-L-F), reference compound] (H-GVNACSSLF; thioester 5-C)
[1]
  Mode/strength of activity toward AgrC-I (Group I), in words: relatively strong AgrC-I antagonist

## CC(C)C[C@@H]1NC(=O)[C@H](Cc2ccc(O)cc2)NC(=O)[C@H](CC(N)=O)NC(=O)[C@H](CO)NC(=O)[C@@H](NC(=O)[C@@H]2CCCN2C(=O)[C@@H](N)CC(N)=O)CSC1=O [AIP-II 7aa, N-P-(C-S-N-Y-L)] (H-NPCSNYL; thioester 3-C)
[1]
  Mode/strength of activity toward AgrC-I (Group I), in words: dramatic reduction in inhibitory activity

## D-S-V-(DC-A-S-Y-F) (DSV[dC]ASYF; bridge 4-C; also: thiolactone between Cys4 side chain and C-terminus) [AIP-I D-C4]
[1]
  EC50 in AgrC-I: Inactive^c
  IC50 in AgrC-I: Inactive^c

## CC(C)[C@H](NC(=O)[C@H](CO)NC(=O)[C@@H](N)CC(=O)O)C(=O)N[C@H]1CSC(=O)[C@@H](Cc2ccccc2)NC(=O)[C@H](Cc2ccc(O)cc2)NC(=O)[C@H](CO)NC(=O)[C@H](C)NC1=O [AIP-I D-F8, D-S-V-(C-A-S-Y-DF)] (H-DSVCASY[dF]; thioester 4-C)
[1]
  Mode/strength of activity toward AgrC-I (Group I), in words: maintained agonistic activity

## KYNVCANYL [AIP-II 9aa P4V S6A, K-Y-N-V-C-A-N-Y-L]
[1]
  Mode/strength of activity toward AgrC-I (Group I), in words: inactive
[4]; [9]
  potency estimated from few doses: > 7000 nM

## D-S-V-(C-A-S-Y-A) (DSVCASYA; bridge 4-C; also: thiolactone between Cys4 side chain and C-terminus) [AIP-I F8A]
[1]
  EC50 in AgrC-I: Inactive^c
  IC50 in AgrC-I: Inactive^c

## KYLPCSNYL [AIP-II 9aa N3L, K-Y-L-P-C-S-N-Y-L]
[1]
  Mode/strength of activity toward AgrC-I (Group I), in words: antagonist
[4]
  Mode/strength of activity toward AgrC-II (Group II), in words: antagonist
[4]; [6]
  potency estimated from few doses: 70.7 nM
[5]; [10]
  potency estimated from few doses: 9.4 nM

## KYNVCSNYL [AIP-II 9aa P4V, K-Y-N-V-C-S-N-Y-L]
[1]
  Mode/strength of activity toward AgrC-I (Group I), in words: antagonist
[4]; [9]
  potency estimated from few doses: 114 nM
[5]; [10]
  potency estimated from few doses: 45 nM

## CC(C)[C@@H](NC(=O)[C@H](CO)NC(=O)[C@@H](N)CC(=O)O)C(=O)N[C@H]1CSC(=O)[C@H](Cc2ccccc2)NC(=O)[C@H](Cc2ccc(O)cc2)NC(=O)[C@H](CO)NC(=O)[C@H](C)NC1=O [AIP-I D-V3, D-S-DV-(C-A-S-Y-F)] (H-DS[dV]CASYF; thioester 4-C)
[1]; single concentration 100 nM (or 1 μM)
  Activity toward Group-I at lower concentration, in words: lost its inhibitory activity
[3]
  Activity toward Group-III at lower concentration, in words: remained an antagonist
[4]
  Activity toward Group-II at lower concentration, in words: remained an antagonist

## CC(=O)N[C@H]1CSC(=O)[C@H](Cc2ccccc2)NC(=O)[C@H](Cc2ccc(O)cc2)NC(=O)[C@H](CO)NC(=O)[C@H](C)NC1=O [tAIP-I, Ac-(C-A-S-Y-F)] (Ac-CASYF; thioester 1-C)
[1]
  Mode/strength of activity toward AgrC-I (Group I), in words: weak inhibitory activity
